Laboratory results: US6818445B2 (Synaptic Pharmaceutical Corporation, priority 1994, dated 2004)

How the values were obtained:
[1] = molecular target: human 5-HT7 receptor (Homo sapiens, UniProt P34969); assay: Binding to human 5-HT7 receptor; conditions: cloned human receptor
[2] = molecular target: human Y4 receptor (Homo sapiens, UniProt P50391); assay type: binding; conditions: read-out: Binding Affinity (Ki (nM) vs. ^125I-PYY) Human Receptor Y4; Table 14
[3] = molecular target: T1, human α1a receptor (Homo sapiens, UniProt P35348); assay: Binding to cloned human α1a adrenergic receptor
T1 sequence (P35348 1-466): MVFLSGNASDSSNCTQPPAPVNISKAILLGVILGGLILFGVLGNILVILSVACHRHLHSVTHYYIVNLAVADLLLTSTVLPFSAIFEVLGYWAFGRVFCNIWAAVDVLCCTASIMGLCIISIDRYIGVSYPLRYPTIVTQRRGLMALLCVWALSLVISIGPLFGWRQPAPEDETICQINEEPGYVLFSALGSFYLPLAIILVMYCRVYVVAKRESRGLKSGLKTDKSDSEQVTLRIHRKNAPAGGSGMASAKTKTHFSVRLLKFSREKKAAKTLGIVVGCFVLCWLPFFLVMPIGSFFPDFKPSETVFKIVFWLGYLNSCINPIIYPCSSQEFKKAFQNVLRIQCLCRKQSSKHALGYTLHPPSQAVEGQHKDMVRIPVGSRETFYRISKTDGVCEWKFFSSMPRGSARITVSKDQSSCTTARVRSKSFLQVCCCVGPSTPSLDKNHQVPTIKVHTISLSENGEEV

[4] = system: food intake of 24 h food-deprived rats; assay: Food intake in food-deprived rats; assay type: in vivo, rat; conditions: 30 mg/kg i.p. after 24 h food deprivation, percentage of intake compared to control rats
Experimental: At the end of the equilibration period, food is removed from the animals for 24 hours starting at 8:00 a.m. At the end of the fasting period compound or vehicle may be administered to the animals orally or by injection intraperitoneally or intravenously. After 10-60 min. food is returned to the animals and their food intake is monitored at various time periods during the following 24 hour period. The food intake of animals treated with test compound may be calculated as a percentage of the food intake of control animals (i.e., animals treated with vehicle). Alternatively, food intake for each group of animals subjected to a particular experimental condition may be expressed as the mean±S.E.M.
Therefore, the Y5 antagonists of Table 14 were administered by intraperitoneal injection at a dose of 30 mg/kg to conscious rats following a 24 h food deprivation. […] Measurements were performed two hours after administration of the test compound.

[5] = molecular target: T2, human Y2 receptor (Homo sapiens, UniProt P49146); assay type: binding; conditions: read-out: Binding Affinity (Ki (nM) vs. ^125I-PYY) Human Receptor Y2; Table 14
T2 sequence (P49146 1-381): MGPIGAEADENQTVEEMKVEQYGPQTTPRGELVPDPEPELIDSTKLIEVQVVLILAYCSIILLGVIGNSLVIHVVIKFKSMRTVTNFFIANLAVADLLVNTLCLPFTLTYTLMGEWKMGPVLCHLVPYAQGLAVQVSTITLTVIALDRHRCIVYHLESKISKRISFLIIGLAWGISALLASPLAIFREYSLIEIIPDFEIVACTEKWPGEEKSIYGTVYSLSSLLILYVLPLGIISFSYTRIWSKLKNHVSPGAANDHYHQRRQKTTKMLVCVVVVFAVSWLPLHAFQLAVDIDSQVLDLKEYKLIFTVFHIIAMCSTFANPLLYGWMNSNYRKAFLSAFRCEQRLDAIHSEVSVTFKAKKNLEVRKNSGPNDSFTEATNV

[6] = molecular target: T3, human α1d receptor (Homo sapiens, UniProt P25100); assay: Binding to cloned human α1d adrenergic receptor
T3 sequence (P25100 1-572): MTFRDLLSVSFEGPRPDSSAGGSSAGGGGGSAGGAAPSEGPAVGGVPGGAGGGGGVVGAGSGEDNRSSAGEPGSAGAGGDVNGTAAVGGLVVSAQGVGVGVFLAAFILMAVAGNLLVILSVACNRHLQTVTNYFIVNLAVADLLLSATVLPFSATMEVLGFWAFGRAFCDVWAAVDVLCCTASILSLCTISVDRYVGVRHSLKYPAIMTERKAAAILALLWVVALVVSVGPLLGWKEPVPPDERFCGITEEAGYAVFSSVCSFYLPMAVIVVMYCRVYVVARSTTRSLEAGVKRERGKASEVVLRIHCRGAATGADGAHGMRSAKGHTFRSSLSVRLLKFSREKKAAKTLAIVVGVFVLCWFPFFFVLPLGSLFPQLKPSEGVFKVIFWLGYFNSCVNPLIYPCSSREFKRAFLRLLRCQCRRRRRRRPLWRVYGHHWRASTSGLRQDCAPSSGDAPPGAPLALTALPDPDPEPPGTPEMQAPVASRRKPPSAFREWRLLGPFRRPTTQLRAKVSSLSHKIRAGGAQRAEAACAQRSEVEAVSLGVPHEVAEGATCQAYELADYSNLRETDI

[7] = molecular target: T4, human α1b receptor (Homo sapiens, UniProt P35368); assay: Binding to cloned human α1b adrenergic receptor
T4 sequence (P35368 1-520): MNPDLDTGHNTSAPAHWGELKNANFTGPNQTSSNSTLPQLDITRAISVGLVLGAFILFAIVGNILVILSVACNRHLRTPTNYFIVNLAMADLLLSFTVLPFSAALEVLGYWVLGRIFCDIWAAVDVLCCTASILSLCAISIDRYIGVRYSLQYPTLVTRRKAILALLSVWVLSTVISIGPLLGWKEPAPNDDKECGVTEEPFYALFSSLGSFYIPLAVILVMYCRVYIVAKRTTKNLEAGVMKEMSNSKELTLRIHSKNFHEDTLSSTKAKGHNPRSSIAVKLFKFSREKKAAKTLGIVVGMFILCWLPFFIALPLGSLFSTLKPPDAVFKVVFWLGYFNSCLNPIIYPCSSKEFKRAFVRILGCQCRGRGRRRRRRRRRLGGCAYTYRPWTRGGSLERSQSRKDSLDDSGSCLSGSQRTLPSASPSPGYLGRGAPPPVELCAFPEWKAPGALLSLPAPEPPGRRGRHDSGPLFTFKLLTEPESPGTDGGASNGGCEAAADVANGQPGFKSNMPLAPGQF

[8] = molecular target: T5, human Y1 receptor (Homo sapiens, UniProt P25929); conditions: read-out: Binding Affinity (Ki (nM) vs. ^125I-PYY) Human Receptor Y1; Table 14
T5 sequence (P25929 1-384): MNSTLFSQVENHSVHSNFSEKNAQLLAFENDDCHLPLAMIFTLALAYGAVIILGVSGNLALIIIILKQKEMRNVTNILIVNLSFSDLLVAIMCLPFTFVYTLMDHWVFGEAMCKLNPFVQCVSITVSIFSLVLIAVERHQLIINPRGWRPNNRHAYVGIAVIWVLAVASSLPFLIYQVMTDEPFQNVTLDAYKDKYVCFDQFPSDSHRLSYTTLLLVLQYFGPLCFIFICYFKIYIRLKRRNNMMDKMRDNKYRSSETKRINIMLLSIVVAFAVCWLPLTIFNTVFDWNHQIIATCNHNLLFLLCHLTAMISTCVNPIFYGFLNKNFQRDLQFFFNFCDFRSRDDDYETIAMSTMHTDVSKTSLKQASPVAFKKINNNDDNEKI

human Y4 receptor, sequence (P50391 whole entry): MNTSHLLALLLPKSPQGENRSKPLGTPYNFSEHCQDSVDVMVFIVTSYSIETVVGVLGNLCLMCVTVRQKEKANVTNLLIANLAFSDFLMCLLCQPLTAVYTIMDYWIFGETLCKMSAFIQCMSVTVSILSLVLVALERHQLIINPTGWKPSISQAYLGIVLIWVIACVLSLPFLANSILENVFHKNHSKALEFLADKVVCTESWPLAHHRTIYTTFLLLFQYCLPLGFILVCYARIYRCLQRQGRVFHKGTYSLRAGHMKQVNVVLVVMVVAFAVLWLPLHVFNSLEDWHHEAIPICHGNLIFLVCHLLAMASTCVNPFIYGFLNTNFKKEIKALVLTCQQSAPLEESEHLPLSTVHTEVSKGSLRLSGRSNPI
human 5-HT7 receptor, sequence (P34969 1-445 isoform P34969-2): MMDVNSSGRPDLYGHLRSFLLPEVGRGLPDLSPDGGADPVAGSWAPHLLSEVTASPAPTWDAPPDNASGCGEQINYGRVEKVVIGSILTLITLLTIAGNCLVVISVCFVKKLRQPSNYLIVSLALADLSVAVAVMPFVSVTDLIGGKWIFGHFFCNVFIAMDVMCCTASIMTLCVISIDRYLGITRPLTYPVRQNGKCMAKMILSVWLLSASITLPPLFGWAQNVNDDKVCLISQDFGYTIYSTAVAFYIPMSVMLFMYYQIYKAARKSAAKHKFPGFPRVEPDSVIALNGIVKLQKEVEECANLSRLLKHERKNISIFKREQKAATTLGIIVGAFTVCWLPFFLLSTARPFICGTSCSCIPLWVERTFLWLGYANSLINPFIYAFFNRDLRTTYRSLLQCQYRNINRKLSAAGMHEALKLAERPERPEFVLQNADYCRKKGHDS

| Compound | Receptor (pKi) 5HT7 [1] | Ki [2] | Receptor (pKi) α1a [3] | Two-hour food intake of food-deprived rats, Mean (%) [4] | Ki [5] | Receptor (pKi) α1d [6] | Receptor (pKi) α1b [7] | Ki [8] |
| --- | --- | --- | --- | --- | --- | --- | --- | --- |
| Cl.Cl.Nc1ccccc1S(=O)(=O)NCC1CCC(CNCC2CCc3ccccc3C2)CC1 (stereo not drawn) [Compound 22] | 6.39 | 27500 nM | 7.34 | 55% | 7570 nM | 6.80 | 6.98 | 17200 nM |
| Cl.O=[N+]([O-])c1ccccc1S(=O)(=O)NC[C@H]1CC[C@H](CNCC2CCc3ccccc3C2)CC1 (stereo partly drawn) [Compound 20] | 6.37 | 20400 nM | 7.72 | 35% | 7760 nM | 7.01 | 7.22 | 16000 nM |
| Cl.O=S(=O)(NC[C@H]1CC[C@H](CNCC2CCc3ccccc3C2)CC1)c1cccc2ccccc12 (stereo partly drawn) [Compound 19] | 6.42 | 11700 nM | 7.47 | 36% | 955 nM | 6.90 | 7.35 | 3550 nM |
